Experimental data from ChEMBL document CHEMBL6092124, “Design, synthesis and biological evaluation of novel cyano-cinnamate derivatives as mitochondrial pyruvate carrier inhibitors” (Bioorg Med Chem Lett, 2024).
Activity calls are given as the source filed them. The calls are words filed in the database; no cut-off is given here.

Key:
[1] = test system: MCF-10A; assay: Inhibition of MPC in human MCF-10A cells assessed as cellular lactate production measured per 10^6 cells at 10 uM measured for 36 hrs; type: cell-based
[2] = test system: MCF-10A; assay: Inhibition of MPC in human MCF-10A cells assessed as lactate concentration at 10 uM measured for 36 hrs; type: cell-based
[3] = organism: Mus musculus; assay: Induction of hair growth in C57BL/6J mouse assessed as appearance of hair growth patches measured on day 17; type: functional, organism-based; conditions: time 17.0 day
[4] = test system: MCF-10A; assay: Inhibition of MPC in human MCF-10A cells assessed as cellular lactate production measured per 10^6 cells measured for 36 hrs; type: cell-based; conditions: dose 10.0 µM
[5] = organism: Mus musculus; assay: Induction of hair growth in C57BL/6J mouse assessed as increase in pigmentation measured after 10 days; type: functional, organism-based; conditions: time 10.0 day

Row | Structure (SMILES) | Activity [1] [µmol] | Activity [2] [µmol/mL] | Activity [3] | Activity [4] | Activity [5]
1 | CCOC(=O)/C(C#N)=C/c1cn(-c2cncnc2)c2ccccc12 | 0.006 | 0.025 |  |  | 
2 | Cn1cnc(-n2cc(/C=C(\C#N)C(=O)O)c3ccccc32)c1 | -0.001 | -0.003 |  |  | 
3 | CCOC(=O)/C(C#N)=C/c1cn(-c2ccncc2)c2ccccc12 | 0.006 | 0.025 |  |  | 
4 | N#C/C(=C\c1cn(-c2ccccc2)c2ccccc12)C(=O)O | 0.185 | 0.778 | Active | Dose-dependent-effect | 
5 | N#C/C(=C\c1cn(Cc2ccccn2)c2ccccc12)C(=O)O | 0.322 | 1.35 | Active |  | Active; Drug Entered To Anagen Phase
6 | CCOC(=O)/C(C#N)=C/c1cn(Cc2cccnc2)c2ccccc12 | 0.208 | 0.874 |  |  | 
7 | CCOC(=O)/C(C#N)=C/c1cn(Cc2ccncc2)c2ccccc12 | -0.005 | -0.02 |  |  | 
8 | CCOC(=O)/C(C#N)=C/c1cn(-c2cccnc2)c2ccccc12 | 0.033 | 0.138 |  |  | 
9 | N#C/C(=C\c1cn(Cc2ccncc2)c2ccccc12)C(=O)O | -0.08 | -0.337 |  |  | 
10 | N#C/C(=C\c1cn(-c2ncccn2)c2ccccc12)C(=O)O | 0.1 | 0.421 |  |  | 
11 | N#C/C(=C\c1cn(-c2cncnc2)c2ccccc12)C(=O)O | 0.13 | 0.546 |  |  | 
12 | N#C/C(=C\c1cn(Cc2ccc3ccccc3c2)c2ccccc12)C(=O)O | 0.292 | 1.23 |  |  | 
13 | CCOC(=O)/C(C#N)=C/c1cn(-c2ccc3ccccc3c2)c2ccccc12 | 0.104 | 0.438 |  |  | 
14 | N#C/C(=C\c1cn(Cc2cccnc2)c2ccccc12)C(=O)O | 0.093 | 0.393 |  |  | 
15 | N#C/C(=C\c1cn(-c2ccccn2)c2ccccc12)C(=O)O | 0.116 | 0.489 |  |  | 
16 | CCOC(=O)/C(C#N)=C/c1cn(-c2ncccn2)c2ccccc12 | 0.081 | 0.342 |  |  | 
17 | N#C/C(=C\c1cn(-c2ccncc2)c2ccccc12)C(=O)O | 0.014 | 0.059 |  |  | 
18 | CCOC(=O)/C(C#N)=C/c1cn(Cc2ccccn2)c2ccccc12 | -0.03 | -0.128 |  |  | 
19 | CCOC(=O)/C(C#N)=C/c1cn(-c2cn(C)cn2)c2ccccc12 | 0.152 | 0.64 |  |  | 
20 | CCOC(=O)/C(C#N)=C/c1cn(Cc2ccc3ccccc3c2)c2ccccc12 | 0.064 | 0.268 |  |  | 
21 | N#C/C(=C\c1cn(-c2cccnc2)c2ccccc12)C(=O)O | 0.06 | 0.251 |  |  | 
22 | N#C/C(=C\c1cn(-c2ccc3ccccc3c2)c2ccccc12)C(=O)O | 0.123 | 0.517 |  |  | 
23 | CCOC(=O)/C(C#N)=C/c1cn(-c2ccccn2)c2ccccc12 | 0.148 | 0.625 |  |  | 
